{"source": "paper PMC6980506", "about": "“Comparative pharmacokinetics and pharmacodynamics of the advanced Retinol-Binding Protein 4 antagonist in dog and cynomolgus monkey” (PLoS ONE, 2020)", "experiment": "Single dose pharmacokinetic study in cynomolgus monkey", "type": "in vivo", "method": "Pharmacokinetic studies were conducted in male beagle dogs and male cynomolgus monkeys at SRI International, Menlo Park, CA. General procedures for animal care and housing were in accordance with the National Research Council (NRC) Guide for the Care and Use of Laboratory Animals (1996) and the Animal Welfare Standards incorporated in 9 CFR Part 3, 1991 and complied with guidelines set forth by the ARVO Animal Statement for the Use of Animals in Ophthalmic and Vision Research. During the course of the PK experiments, cynomolgus monkeys were individually housed in stainless steel primary enclosures in an AAALAC-accredited facility. Animals were fed a commercial monkey chow, and supplemental food was provided (fresh fruits, vegetables, seeds, and nuts). Reverse osmosis-purified drinking water was available at all times. Cynomolgus monkeys were maintained on a 12:12 hour light:dark cycle at the 64–84°F temperature and 30–70% humidity. Monkeys had access to enrichment opportunities (grooming devices, foraging devices, activity panels and mirrors) and were provided auditory stimuli and human interaction enrichment throughout the study. Blood samples were collected by venipuncture of a peripheral vein. Animals were acclimated to the squeeze back mechanism in their home cage by repeated, short periods of restraint during general husbandry procedures for at least 2 weeks prior to dosing. Animal were not removed from their cages for collection, and no anesthesia/analgesic agents were used for blood collection. […] For PK experiments, beagle dogs were individually housed in enclosed run (≥ 4 ft x 6 ft). Dogs were exposed to their daily ration of food, Harlan Teklad 2025C Certified Global 25% Protein Dog Diet. Water was provided from the public water supply (municipal tap water) ad libitum. Dogs were maintained on a 12:12 hour light:dark cycle at the 72–73°F temperature and 40–71% humidity. Every effort was made to minimize, if not eliminate, pain and suffering in all animals in this study. No restraining devices were used in blood collecting procedures. Dogs were gentle hand-held to restrain by trained technicians with the dogs foreleg extended for sample collection of blood from cephalic vein. Animals were awake during blood sample collection with no anesthesia/analgesic agents used, and positive reinforcement by the technician was provided following collection. […] All dogs were released back to the colony after the study was completed. Male beagle dogs and male cynomolgus monkey received a single i.v. dose of a test compound at 0.5 mg kg^−1 (dog) and 1 mg kg^−1 (monkey) or a single p.o. dose of a test compound of at 2 mg kg^−1 (dog) and 5 mg kg^−1 (monkey). The number of animals that was used in PK experiments is 3 per study group. Intravenous administration vehicle was 3% DMA/45% PEG300/12% ethanol/40% sterile water; p.o. vehicle was 2% Tween 80 in 0.9% saline. […] Blood samples were processed to plasma. Following protein extraction with acetonitrile, compound concentrations in plasma were measured by LC-MS/MS. The plasma drug level data were analyzed using WinNonlin software package; Model 201 (for i.v. bolus administration);was used for the analysis of i.v. data, and Model 200 (for extravascular administration) was used for the analysis of the p.o. data. Aliquots of pre-dose plasma samples, as well as aliquots of plasma PK samples, were used for the analysis of the plasmabiomarker, RBP4.\nAdministration to Non-Human Primates\nII. MATERIALS AND METHODS", "key": {"[1]": {"conditions": "male, cynomolgus monkey, plasma, po, Cyno, 5.0 mg kg^−1 p.o., mean ± SD, n=3"}}, "note": "Values joined by “and” are separate entries in the source; they are usually repeats but may differ in a detail not shown here. Identical values can stand only once. Like-named read-outs stand apart in the source and are kept apart here.", "data": [{"molecule": "Cc1cc(C(=O)O)nc(N2C[C@H]3C[C@@H](c4ccccc4C(F)(F)F)C[C@H]3C2)n1", "note": "[BPN-14136]", "values": [{"measurement": "concentration at 4 hr", "setting": "male, cynomolgus monkey, plasma, po, 5 mg/kg, non-human primate, po 5 mg/kg, 4 hr, read-out: Plasma level, Individual animals", "value": 26600, "unit": "ng/mL"}, {"measurement": "concentration at 4 hr", "setting": "male, cynomolgus monkey, plasma, po, 5 mg/kg, non-human primate, po 5 mg/kg, 4 hr, read-out: Plasma level, Mean", "value": 27200, "unit": "ng/mL"}, {"measurement": "concentration at 6 hr", "setting": "male, cynomolgus monkey, plasma, po, 5 mg/kg, non-human primate, po 5 mg/kg, 6 hr, read-out: Plasma level, Individual animals", "value": 26700, "unit": "ng/mL"}, {"measurement": "concentration at 6 hr", "setting": "male, cynomolgus monkey, plasma, po, 5 mg/kg, non-human primate, po 5 mg/kg, 6 hr, read-out: Plasma level, Mean", "value": 26600, "unit": "ng/mL"}, {"measurement": "concentration at 8 h", "setting": "male, cynomolgus monkey, plasma, po, 5 mg/kg, non-human primate, po 5 mg/kg, 8 hr, read-out: Plasma level, Individual animals", "value": 23900, "unit": "ng/mL"}, {"measurement": "concentration at 8 h", "setting": "male, cynomolgus monkey, plasma, po, 5 mg/kg, non-human primate, po 5 mg/kg, 8 hr, read-out: Plasma level, Mean", "value": 23900, "unit": "ng/mL"}, {"measurement": "concentration at 12 h", "setting": "male, cynomolgus monkey, plasma, po, 5 mg/kg, non-human primate, po 5 mg/kg, 12 hr, read-out: Plasma level, Individual animals", "value": 16700, "unit": "ng/mL"}, {"measurement": "concentration at 12 h", "setting": "male, cynomolgus monkey, plasma, po, 5 mg/kg, non-human primate, po 5 mg/kg, 12 hr, read-out: Plasma level, Mean", "value": 18600, "unit": "ng/mL"}, {"measurement": "concentration at 24 h", "setting": "male, cynomolgus monkey, plasma, po, 5 mg/kg, non-human primate, po 5 mg/kg, 24 hr, read-out: Plasma level, Individual animals", "value": 12700, "unit": "ng/mL"}, {"measurement": "concentration at 24 h", "setting": "male, cynomolgus monkey, plasma, po, 5 mg/kg, non-human primate, po 5 mg/kg, 24 hr, read-out: Plasma level, Mean", "value": 12500, "unit": "ng/mL"}, {"measurement": "concentration at 36 h", "setting": "male, cynomolgus monkey, plasma, po, 5 mg/kg, non-human primate, po 5 mg/kg, 36 hr, read-out: Plasma level, Individual animals", "value": 6800, "unit": "ng/mL"}, {"measurement": "concentration at 36 h", "setting": "male, cynomolgus monkey, plasma, po, 5 mg/kg, non-human primate, po 5 mg/kg, 36 hr, read-out: Plasma level, Mean", "value": 7190, "unit": "ng/mL"}, {"measurement": "concentration at 48 h", "setting": "male, cynomolgus monkey, plasma, po, 5 mg/kg, non-human primate, po 5 mg/kg, 48 hr, read-out: Plasma level, Mean", "value": 5380, "unit": "ng/mL"}, {"measurement": "AUC(0-t)", "setting": "[1]", "value": "676 ± 129", "unit": "µg·h/mL"}, {"measurement": "Tmax", "setting": "[1]", "value": "1.67 ± 0.58", "unit": "h"}, {"measurement": "half-life", "setting": "male, cynomolgus monkey, plasma, po, Cyno, 5.0 mg kg^−1 p.o., mean ± SD, n=3, read-out: T1/2, apparent terminal half-life (converted)", "value": "1070 ± 252", "unit": "min"}, {"measurement": "Plasma level, Individual animals", "setting": "non-human primate, iv 1.0 mg/kg, 0.0083 hr, 1 mg/kg", "value": "11200 ng/mL and 12100 ng/mL"}, {"measurement": "Plasma level, Individual animals", "setting": "non-human primate, iv 1.0 mg/kg, 0.25 hr, 1 mg/kg", "value": "10900 ng/mL and 10800 ng/mL"}, {"measurement": "Plasma level, Individual animals", "setting": "non-human primate, iv 1.0 mg/kg, 0.5 hr, 1 mg/kg", "value": "10000 ng/mL and 9400 ng/mL"}, {"measurement": "Plasma level, Individual animals", "setting": "non-human primate, iv 1.0 mg/kg, 1 hr, 1 mg/kg", "value": "8350 ng/mL and 9370 ng/mL"}, {"measurement": "Plasma level, Individual animals", "setting": "non-human primate, iv 1.0 mg/kg, 2 hr, 1 mg/kg", "value": "7340 ng/mL and 8000 ng/mL"}, {"measurement": "Plasma level, Individual animals", "setting": "non-human primate, iv 1.0 mg/kg, 4 hr, 1 mg/kg", "value": "6800 ng/mL and 7000 ng/mL"}, {"measurement": "Plasma level, Individual animals", "setting": "non-human primate, iv 1.0 mg/kg, 8 hr, 1 mg/kg", "value": "5290 ng/mL and 6220 ng/mL"}, {"measurement": "Plasma level, Individual animals", "setting": "non-human primate, iv 1.0 mg/kg, 12 hr, 1 mg/kg", "value": "3860 ng/mL and 6000 ng/mL"}, {"measurement": "Plasma level, Individual animals", "setting": "non-human primate, iv 1.0 mg/kg, 24 hr, 1 mg/kg", "value": "2510 ng/mL and 3430 ng/mL"}, {"measurement": "Plasma level, Individual animals", "setting": "non-human primate, iv 1.0 mg/kg, 36 hr, 1 mg/kg", "value": "1610 ng/mL and 1090 ng/mL and 2300 ng/mL"}, {"measurement": "Plasma level, Individual animals", "setting": "non-human primate, iv 1.0 mg/kg, 48 hr, 1 mg/kg", "value": "962 ng/mL and 671 ng/mL and 1530 ng/mL"}, {"measurement": "Plasma level, Mean", "setting": "non-human primate, iv 1.0 mg/kg, Predose", "value": 196, "unit": "ng/mL"}, {"measurement": "Plasma level, Individual animals", "setting": "non-human primate, iv 1.0 mg/kg, Predose, 1 mg/kg", "value": "132 ng/mL and 64.6 ng/mL and 392 ng/mL"}, {"measurement": "Plasma level, Individual animals", "setting": "non-human primate, po 5 mg/kg, 0.25 hr, 5 mg/kg", "value": "9420 ng/mL and 14200 ng/mL"}, {"measurement": "Plasma level, Individual animals", "setting": "non-human primate, po 5 mg/kg, 0.5 hr, 5 mg/kg", "value": "15200 ng/mL and 23400 ng/mL"}, {"measurement": "Plasma level, Individual animals", "setting": "non-human primate, po 5 mg/kg, 1 hr, 5 mg/kg", "value": "31400 ng/mL and 33300 ng/mL"}, {"measurement": "Plasma level, Individual animals", "setting": "non-human primate, po 5 mg/kg, 2 hr, 5 mg/kg", "value": "29300 ng/mL and 32000 ng/mL"}, {"measurement": "Plasma level, Individual animals", "setting": "non-human primate, po 5 mg/kg, 4 hr, 5 mg/kg", "value": "25800 ng/mL and 29100 ng/mL"}, {"measurement": "Plasma level, Individual animals", "setting": "non-human primate, po 5 mg/kg, 6 hr, 5 mg/kg", "value": "22400 ng/mL and 30600 ng/mL"}, {"measurement": "Plasma level, Individual animals", "setting": "non-human primate, po 5 mg/kg, 8 hr, 5 mg/kg", "value": "21700 ng/mL and 26200 ng/mL"}, {"measurement": "Plasma level, Individual animals", "setting": "non-human primate, po 5 mg/kg, 12 hr, 5 mg/kg", "value": "16100 ng/mL and 22900 ng/mL"}, {"measurement": "Plasma level, Individual animals", "setting": "non-human primate, po 5 mg/kg, 24 hr, 5 mg/kg", "value": "9590 ng/mL and 15100 ng/mL"}, {"measurement": "Plasma level, Individual animals", "setting": "non-human primate, po 5 mg/kg, 36 hr, 5 mg/kg", "value": "5230 ng/mL and 9530 ng/mL"}, {"measurement": "Plasma level, Individual animals", "setting": "non-human primate, po 5 mg/kg, 48 hr, 5 mg/kg", "value": "4550 ng/mL and 2950 ng/mL and 8650 ng/mL"}]}]}
